Tests used:
Rattus norvegicus [1] = assay: Anti-inflammatory activity inRattus norvegicus albino (rat) assessed as inhibition of carrageenan-induced paw edema at 100 mg/kg, po administered 2 hr prior challenge measured after 1 hr post challenge; format: functional
Rattus norvegicus [2] = assay: Anti-inflammatory activity inRattus norvegicus albino (rat) assessed as inhibition of carrageenan-induced paw edema at 100 mg/kg, po administered 3 hr prior challenge measured after 1 hr post challenge; format: functional
Rattus norvegicus [3] = assay: Toxicity inRattus norvegicus albino (rat) assessed as ulcerogenicity at 100 mg/kg, po measured after 1 hr; format: organism-based; design: dose 100 mg/kg, route oral; conditions: in vivo
Rattus norvegicus [4] = assay: Anti-inflammatory activity inRattus norvegicus albino (rat) assessed as inhibition of carrageenan-induced paw edema at 100 mg/kg, po administered 1 hr prior challenge measured after 1 hr post challenge; format: functional

Row | Structure (SMILES) | inhibition in vivo at 100 mg/kg (Rattus norvegicus [1]) [%] | inhibition in vivo at 100 mg/kg (Rattus norvegicus [2]) [%] | UI (Rattus norvegicus [3]) | inhibition in vivo at 100 mg/kg (Rattus norvegicus [4]) [%]
1 | Cc1cc(C)n(CC(=O)NNC(=S)Nc2ccc([N+](=O)[O-])cc2)n1 | 44.4 | 62.7 | 18.6 | 36.1
2 | Cc1cc(-c2ccc(Cl)cc2)n(Cc2n[nH]c(=S)o2)n1 | 31.2 | 39.2 | – | 15.4
3 | COc1ccc2c(c1)c(CC(=O)O)c(C)n2C(=O)c1ccc(Cl)cc1 [INDOMETHACIN] | 40.1 | 60.8 | 20.4 | 31.5
4 | Cc1cc(C)n(Cc2n[nH]c(=S)n2-c2ccc([N+](=O)[O-])cc2)n1 | 27.1 | 36.4 | – | 16.6
5 | Cc1cccc(-n2c(Cn3nc(C)cc3C)n[nH]c2=S)c1 | 22.7 | 33.4 | – | 13.2
6 | Cc1cc(-c2ccc(Cl)cc2)n(Cc2nnc(Nc3ccc([N+](=O)[O-])cc3)s2)n1 | 45 | 61.1 | – | 32.8
7 | Cc1cc(-c2ccc(Cl)cc2)n(-c2ccc(S(N)(=O)=O)cc2)n1 | 49.8 | 62.5 | 5.2 | 37.2
8 | Cc1cc(-c2ccc(Cl)cc2)n(-c2ccc(S(=O)(=O)Nc3nccs3)cc2)n1 | 44.3 | 62 | – | 34.1
9 | Cc1ccc(-c2cc(C(F)(F)F)nn2-c2ccc(S(N)(=O)=O)cc2)cc1 [CELECOXIB] | 45.8 | 63.8 | – | 31.4
10 | CCCNc1nnc(Cn2nc(C)cc2-c2ccccc2)s1 | 42.2 | 54.1 | – | 26.9
11 | Cc1cc(C)n(Cc2nnc(Nc3ccc([N+](=O)[O-])cc3)s2)n1 | 50 | 64.9 | 15.6 | 37.5
12 | Cc1cc(C)n(Cc2n[nH]c(=S)o2)n1 | 21.5 | 34.9 | – | 14.4
13 | Cc1cccc(NC(=S)NNC(=O)Cn2nc(C)cc2C)c1 | 22.9 | 40.8 | – | 12.3
14 | COc1ccc(NC(=S)NNC(=O)Cn2nc(C)cc2C)cc1 | 41.4 | 46.4 | – | 30.3
15 | Cc1cc(-c2ccccc2)n(Cc2n[nH]c(=S)o2)n1 | 34.2 | 48.7 | – | 26.3

Source: ChEMBL document CHEMBL3045129, “Synthesis and anti-inflammatory activity of some pyrazole derivatives” (Med Chem Res, 2012)
